Results on one molecule are retold here after patent US6638945B1, “Quinoline derivatives as inhibitors of MEK enzymes” (AstraZeneca AB, priority 1999, dated 2003).

This test deals with human p45MEK1 (GST-MEK) (Homo sapiens, UniProt Q02750). In words: Assay for inhibitors of the MAP kinase pathway (coupled GST-MEK/GST-MAPK/MBP 33P assay). The following applies: GST-MEK activated by c-raf, 33P incorporation into myelin basic protein. The test is classed as biochemical. How it is done:
Assay for inhibitors of the MAP kinase pathway
To evaluate inhibitors of the MAPK pathway a coupled assay was carried out which measures phosphorylation of serine/threonine residues present in the substrate in the presence or absence of inhibitor. Recombinant glutathione S-transferase fusion protein containing human p45MEK1 (GST-MEK) was activated by c-raf (Sf9 insect cell lysate from triple baculoviral infection with c-raf/ras/lck) and used for the assay. Active GST-MEK was first used to activate a recombinant glutathione S-transferase fusion protein containing p44MAP kinase (GST-MAPK) in the presence of ATP and Mg^2+ for 60 min at room temperature in the presence or absence of potential inhibitors. The activated GST-MAPK was then incubated with myelin basic protein (MBP) as substrate for 10 min at room temperature in the presence of ATP, Mg^2+ and ^33P-ATP. The reaction was stropped by addition of 20% v/v phosphoric acid. Incorporation of ^33P into the myelin basic protein was determined by capture of the substrate on a filter mat, washing and counting using scintillation methods. The extent of inhibition was determined by comparison with untreated controls.
The final assay solution contained 10 mM Tris, pH 7.5, 0.05 mM EGTA, 8.33 μM [γ^33P]ATP, 8.33 mM Mg(OAc)2, 0.5 mM sodium orthovanadate, 0.05% w/v BSA, 6.5 ng GST-MEK, 1 μg GST-MAPK and 16.5 μg MBP in a reaction volume of 60 μl.

SMILES strings stand for the structures.

Chain of human p45MEK1 (GST-MEK) (Q02750 whole entry): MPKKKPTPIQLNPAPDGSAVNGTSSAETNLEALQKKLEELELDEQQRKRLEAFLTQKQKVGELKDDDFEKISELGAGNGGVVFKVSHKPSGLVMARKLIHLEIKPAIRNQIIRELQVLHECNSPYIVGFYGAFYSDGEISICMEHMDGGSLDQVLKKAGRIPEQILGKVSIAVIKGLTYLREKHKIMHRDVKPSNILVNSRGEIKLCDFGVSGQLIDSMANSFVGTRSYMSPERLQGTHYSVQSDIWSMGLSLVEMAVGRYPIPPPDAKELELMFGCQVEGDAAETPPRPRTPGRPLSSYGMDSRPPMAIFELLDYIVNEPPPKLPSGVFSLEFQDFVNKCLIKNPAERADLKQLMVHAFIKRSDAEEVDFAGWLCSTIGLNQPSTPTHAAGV

Usually IC50 stands for the concentration that gives 50% inhibition. A low value points to greater potency. In turn, `COc1cc2ncc(F)c(Nc3ccc(Oc4ccccc4)cc3)c2cc1OC` [Compound No 5] yielded an IC50 of 550 nM.
